# From PMC10281575, “PfCRT mutations conferring piperaquine resistance in falciparum malaria shape the kinetics of quinoline drug binding and transport” (PLOS Pathogens, 2023)
# Several values for one entry are separate records, joined by “and”; a condition that tells them apart may be missing. Equal entries are not always repeated.
# Biological target: T1, PfCRT^Dd2_F145I (Plasmodium falciparum, UniProt Q8IBZ9, A220S/F145I/I356T/K76T/M74I/N326S/N75E/Q271E/R371I)
# T1 construct: expressed in transfected cells; host or cells: Xenopus laevis oocytes injected with in vitro transcribed RNA (pSP64T)
# T1 sequence (Q8IBZ9 1-424 M74I/N75E/K76T/F145I/A220S/Q271E/N326S/I356T/R371I): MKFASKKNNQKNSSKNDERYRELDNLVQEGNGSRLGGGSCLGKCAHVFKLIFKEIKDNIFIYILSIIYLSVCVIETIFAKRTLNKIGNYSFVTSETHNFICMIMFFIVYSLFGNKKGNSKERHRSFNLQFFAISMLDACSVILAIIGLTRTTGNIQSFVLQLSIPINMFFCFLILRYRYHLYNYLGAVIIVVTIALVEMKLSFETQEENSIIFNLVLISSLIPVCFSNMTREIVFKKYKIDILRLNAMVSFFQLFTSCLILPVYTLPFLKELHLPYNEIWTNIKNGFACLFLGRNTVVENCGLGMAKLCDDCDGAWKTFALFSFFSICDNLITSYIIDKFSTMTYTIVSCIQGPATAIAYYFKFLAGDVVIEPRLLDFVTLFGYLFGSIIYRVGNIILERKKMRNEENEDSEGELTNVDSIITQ
# Assay: Radiolabeled drug uptake in X. laevis oocytes expressing PfCRT^Dd2_F145I
# Assay type: cell-based
# From the text: The two kinetic parameters were derived by fitting the Michaelis-Menten equation to the kinetic data (Table 1).
# A codon-optimized coding sequence of the Dd2 isoform of PfCRT (PfCRT^Dd2) was subcloned into the pSP64T expression vector [21]. To generate the necessary mutations to introduce the amino acid substitutions H97Y, F145I, M343L or G353V into the pfcrt sequence, the overlap extension method was used. A region from the 5’-untranslated Xenopus β-globin sequence to the respective 3’ region, containing the full length pfcrt coding sequence, was amplified using the following primer pairs: for the H97Y mutation, numbers 1/4 and 2/3; for the F145I mutation, numbers 1/6 and 2/5; for the M343L mutation, numbers 1/8 and 2/7; and for the G353V mutation, numbers 1/10 and 2/9 (for primers, see S2 Table). Both PCR products were used as template for amplification of the final product using primers number 1/2. The resulting fragment was cloned into the pSP64T expression vector, and the presence of the desired mutation was confirmed by sequencing.
# Adult female X. laevis frogs (purchased from NASCO) were anesthetized by submersion in a solution of 0.3% (w/v) 3-amino benzoate methanesulfonate for 15 min. Sections of the ovary were surgically removed and placed in Ca^2+-free ND96 buffer supplemented with 0.1% collagenase D (w/v; Roche), 0.5% BSA (w/v) and 9 mM Na2HPO4 at 18°C for 14–16 h while gently shaking. The oocytes were then washed several times with ND96 buffer (5 mM HEPES, pH 7.5, 96 mM NaCl, 2 mM KCl, 1.8 mM CaCl2, 1 mM MgCl2), supplemented with […] gentamycin. Healthy-looking stage V-VI oocytes were manually selected and randomly grouped for injection. A codon-optimized coding sequence of PfCRT was subcloned into the pSP64T expression vector and subsequently linearized using the restriction endonuclease BamHI or SalI (New England Biolabs GmbH). RNA for injection was transcribed in vitro using the mMESSAGE mMACHINE SP6 Transcription kit (Ambion), diluted with nuclease-free water to a final concentration of 0.6 μg/μL and stored at -80°C. RNA was injected using precision-bore glass capillary tubes (3.5-inch glass capillaries; Drummond Scientific Co.), which were pulled on a vertical puller (P-87 Flaming/Brown micropipette puller, Sutter Instrument Co.) and graduated. The micropipettes were connected to a microinjector (Nanoject II Auto-Nanoliter Injector, Drummond Scientific Co.). Injection was conducted under stereomicroscopic control. 50 nL of nuclease-free water alone (control oocytes) or 50 nL of nuclease-free water containing 30 ng of RNA was injected per oocyte. Injected oocytes were kept for 72 h at 18°C in ND96 buffer with two daily buffer changes before being used for further experiments.
# Drug transport assays were performed as previously described. Briefly, measurements of radiolabeled drug uptake were made over 1 h, unless otherwise specified. […] Where specified, one or more unlabeled drugs were also present at the indicated concentrations. […] The uptake assays were terminated by removing the oocytes from the reaction medium and washing them three times with 2 mL of ice-cold ND96 buffer. Each oocyte was transferred to a separate scintillation vial and lysed by the addition of 200 μL of a 5% SDS solution. The radioactivity in the sample was measured using a liquid scintillation analyser Tri-Carb 4910 TR (PerkinElmer). Water-injected oocytes were analyzed in parallel as a negative control. The buffer from each condition was measured in duplicate in parallel to each experiment to transform counts per minute into pmol of drug. Drug uptake attributable to PfCRT was determined by subtracting the background uptake from water-injected oocytes from that of PfCRT-expressing oocytes.
# [1] = 50 μM CQ, pH 6.0, total uptake, one value per biological replicate
# [2] = 50 μM CQ, pH 6.0, water-injected uptake subtracted, per replicate
# [3] = 60 min, pH 6, per biological replicate
compound,measurement,setting,value
"CCN(CC)CCCC(C)Nc1ccnc2cc(Cl)ccc12 (stereo not shown) [CQ, chloroquine]",PfCRTDd2_F145I-mediated CQ uptake at 10 µM CQ,"10 µM CQ, single replicates",1.05 pmol oocyte-1 h-1 and 0.76 pmol oocyte-1 h-1 and 0.87 pmol oocyte-1 h-1
same,PfCRTDd2_F145I uptake of CQ at 10 min,[1],5.03 pmol oocyte-1 and 4.98 pmol oocyte-1 and 4.51 pmol oocyte-1 and 3.10 pmol oocyte-1 and 1.40 pmol oocyte-1
same,PfCRTDd2_F145I uptake of CQ at 30 min,[1],5.64 pmol oocyte-1 and 11.05 pmol oocyte-1 and 6.90 pmol oocyte-1 and 4.67 pmol oocyte-1 and 6.95 pmol oocyte-1
same,PfCRTDd2_F145I uptake of CQ at 60 min,[1],18.17 pmol oocyte-1 and 7.02 pmol oocyte-1 and 13.61 pmol oocyte-1
same,PfCRTDd2_F145I uptake of CQ at 90 min,[1],12.38 pmol oocyte-1 and 19.74 pmol oocyte-1 and 12.45 pmol oocyte-1 and 15.73 pmol oocyte-1
same,PfCRTDd2_F145I uptake of CQ at 120 min,[1],27.64 pmol oocyte-1 and 15.50 pmol oocyte-1 and 17.12 pmol oocyte-1 and 17.11 pmol oocyte-1
same,PfCRTDd2_F145I uptake of CQ at 180 min,[1],16.65 pmol oocyte-1 and 27.26 pmol oocyte-1 and 23.91 pmol oocyte-1 and 24.65 pmol oocyte-1 and 18.05 pmol oocyte-1
same,PfCRTDd2_F145I-mediated CQ uptake at 10 min,[2],0.94 pmol oocyte-1 and 1.01 pmol oocyte-1 and 0.80 pmol oocyte-1 and 2.16 pmol oocyte-1 and 0.92 pmol oocyte-1
same,PfCRTDd2_F145I-mediated CQ uptake at 30 min,[2],0.42 pmol oocyte-1 and 1.71 pmol oocyte-1 and 1.49 pmol oocyte-1 and 3.31 pmol oocyte-1 and 2.06 pmol oocyte-1
same,PfCRTDd2_F145I-mediated CQ uptake at 60 min,[2],3.80 pmol oocyte-1 and 4.28 pmol oocyte-1 and 2.84 pmol oocyte-1
same,PfCRTDd2_F145I-mediated CQ uptake at 90 min,[2],3.78 pmol oocyte-1 and 4.21 pmol oocyte-1 and 3.32 pmol oocyte-1 and 5.64 pmol oocyte-1
same,PfCRTDd2_F145I-mediated CQ uptake at 120 min,[2],7.06 pmol oocyte-1 and 4.10 pmol oocyte-1 and 3.52 pmol oocyte-1 and 3.59 pmol oocyte-1
same,PfCRTDd2_F145I-mediated CQ uptake at 180 min,[2],3.40 pmol oocyte-1 and 6.55 pmol oocyte-1 and 4.77 pmol oocyte-1 and 7.29 pmol oocyte-1 and 3.73 pmol oocyte-1
same,PfCRTDd2_F145I-mediated CQ uptake at 50 µM CQ,"50 µM CQ, single replicates",3.80 pmol oocyte-1 h-1 and 4.28 pmol oocyte-1 h-1 and 2.84 pmol oocyte-1 h-1
same,PfCRTDd2_F145I-mediated CQ uptake at 100 µM CQ,"100 µM CQ, single replicates",7.23 pmol oocyte-1 h-1 and 7.33 pmol oocyte-1 h-1 and 8.14 pmol oocyte-1 h-1
same,PfCRTDd2_F145I-mediated CQ uptake at 200 µM CQ,"200 µM CQ, single replicates",12.53 pmol oocyte-1 h-1 and 11.12 pmol oocyte-1 h-1 and 14.18 pmol oocyte-1 h-1
same,PfCRTDd2_F145I-mediated CQ uptake at 300 µM CQ,"300 µM CQ, single replicates",13.73 pmol oocyte-1 h-1 and 16.27 pmol oocyte-1 h-1 and 18.53 pmol oocyte-1 h-1
same,PfCRTDd2_F145I-mediated CQ uptake at 400 µM CQ,"400 µM CQ, single replicates",14.23 pmol oocyte-1 h-1 and 18.19 pmol oocyte-1 h-1 and 22.31 pmol oocyte-1 h-1
same,PfCRTDd2_F145I-mediated CQ uptake at 500 µM CQ,"500 µM CQ, single replicates",19.16 pmol oocyte-1 h-1 and 17.39 pmol oocyte-1 h-1 and 23.99 pmol oocyte-1 h-1
same,PfCRTDd2_F145I-mediated CQ uptake at 10 µM CQ,[3],1.05 pmol oocyte-1 h-1 and 0.76 pmol oocyte-1 h-1 and 0.87 pmol oocyte-1 h-1
same,PfCRTDd2_F145I-mediated CQ uptake at 50 µM CQ,[3],2.84 pmol oocyte-1 h-1 and 3.80 pmol oocyte-1 h-1 and 4.28 pmol oocyte-1 h-1
same,PfCRTDd2_F145I-mediated CQ uptake at 100 µM CQ,[3],7.23 pmol oocyte-1 h-1 and 7.33 pmol oocyte-1 h-1 and 8.14 pmol oocyte-1 h-1
same,PfCRTDd2_F145I-mediated CQ uptake at 200 µM CQ,[3],12.53 pmol oocyte-1 h-1 and 11.12 pmol oocyte-1 h-1 and 14.18 pmol oocyte-1 h-1
same,PfCRTDd2_F145I-mediated CQ uptake at 300 µM CQ,[3],13.73 pmol oocyte-1 h-1 and 16.27 pmol oocyte-1 h-1 and 18.53 pmol oocyte-1 h-1
same,PfCRTDd2_F145I-mediated CQ uptake at 400 µM CQ,[3],14.23 pmol oocyte-1 h-1 and 18.19 pmol oocyte-1 h-1 and 22.31 pmol oocyte-1 h-1
same,PfCRTDd2_F145I-mediated CQ uptake at 500 µM CQ,[3],19.16 pmol oocyte-1 h-1 and 17.39 pmol oocyte-1 h-1 and 23.99 pmol oocyte-1 h-1
same,"Vmax, maximal velocity of drug transport","Michaelis-Menten fit, 10-500 μM drug, 60 min, pH 6",35 ± 2 pmol oocyte^-1 h^-1
same,increase of KM by the F145I substitution,versus PfCRT^Dd2,44%
